Results reported in PMC7872314, “Modeling Bioavailable Concentrations in Zebrafish Cell Lines and Embryos Increases the Correlation of Toxicity Potencies across Test Systems” (Environmental Science & Technology, 2020).
Read-outs that look alike come from different tables or passages of the source.

Legend:
[1] = test system: ZF4 (fibroblasts) cell line; assay: alamarBlue (AB) endpoint of AB/CFDA/NR multiplex, cellular respiration; type: cell-based, zebrafish (Danio rerio); details: Danio rerio, Fibroblast
[2] = test system: ZF4 (fibroblasts) cell line; assay: MTS assay (MTS/BCA multiplex), NAD(P)H metabolism; type: cell-based, zebrafish (Danio rerio); details: Danio rerio, Fibroblast
zebrafish embryos [3] = assay: animal or person; type: in vivo, zebrafish (Danio rerio)
[4] = test system: ZFL (hepatocytes) cell line; assay: cells; type: cell-based, zebrafish (Danio rerio); details: Danio rerio, Hepatocyte
[5] = test system: ZF4 (fibroblasts) cell line; assay: ATP assay (ATP/LDH multiplex), ATP metabolism; type: cell-based, zebrafish (Danio rerio); details: Danio rerio, Fibroblast
[6] = ref Comptox, PubChem or DrugBank; cited from earlier work
[7] = test system: ZF4 (fibroblasts) cell line; assay: Neutral red, absorbance (NRa), AB/CFDA/NR multiplex, lysosome stability; type: cell-based, zebrafish (Danio rerio); details: Danio rerio, Fibroblast
[8] = test system: ZFL (hepatocytes) cell line; assay: cells; type: cell-based, zebrafish (Danio rerio); details: Danio rerio, Hepatocyte; remark: listed apart in the source
[9] = test system: ZF4 (fibroblasts) cell line; assay: BCA assay (MTS/BCA multiplex), protein amount; type: cell-based, zebrafish (Danio rerio); details: Danio rerio, Fibroblast
[10] = test system: ZF4 (fibroblasts) cell line; assay: Neutral red, fluorescence (NRf), AB/CFDA/NR multiplex, lysosome stability; type: cell-based, zebrafish (Danio rerio); details: Danio rerio, Fibroblast
zebrafish embryos [11] = test system: zebrafish embryos; design: method as in earlier work; details: nominal, cited from earlier work
[12] = test system: ZFL (hepatocytes) cell line; assay: cells; type: cell-based, zebrafish (Danio rerio); details: Danio rerio, Hepatocyte; remark: listed apart in the source
[13] = test system: ZFL (hepatocytes) cell line; assay: cells; type: cell-based, zebrafish (Danio rerio); details: Danio rerio, Hepatocyte; remark: listed apart in the source
[14] = test system: ZFL (hepatocytes) cell line; assay: cells; type: cell-based, zebrafish (Danio rerio); details: Danio rerio, Hepatocyte; remark: listed apart in the source
ZF4 and ZFL cell lines = assay: Cytotoxicity assays, all endpoints, both cell lines (mean/range); type: cell-based, zebrafish (Danio rerio); details: 48 h
[15] = test system: ZFL (hepatocytes) cell line; assay: cells; type: cell-based, zebrafish (Danio rerio); details: Danio rerio, Hepatocyte; remark: listed apart in the source
[16] = test system: ZF4 (fibroblasts) cell line; assay: CFDA endpoint of AB/CFDA/NR multiplex, membrane stability; type: cell-based, zebrafish (Danio rerio); details: Danio rerio, Fibroblast
[17] = test system: ZFL (hepatocytes) cell line; assay: cells; type: cell-based, zebrafish (Danio rerio); details: Danio rerio, Hepatocyte; remark: listed apart in the source

Compound: CCC(C)C1OC2(CCC1C)CC1CC(CC=C(C)C(OC3CC(OC)C(OC4CC(OC)C(O)C(C)O4)C(C)O3)C(C)C=CC=C3COC4C(O)C(C)=CC(C(=O)O1)C34O)O2 (stereo not drawn) [Ivermectin, ivermectin]
- IC50 ([1]; AB - ZF4, log10 of IC50, read-out: LogIC50 (converted)): 10.2 µM
- IC50 ([1]; AB - ZF4, read-out: IC50): 10.2 µM
- IC50 ([1]; ZF4, 48 h exposure, nominal, log10, read-out: logIC50 (log10 IC50;nom) AB (converted)): 10.2 µM
- IC50 ([1]; ZF4, 48 h exposure, nominal, read-out: IC50;nom AB): 10.2 µM
- IC50 ([2]; MTS - ZF4, log10 of IC50, read-out: LogIC50 (converted)): 13.6 µM
- IC50 ([2]; MTS - ZF4, read-out: IC50): 13.6 µM
- IC50 ([2]; ZF4, 48 h exposure, nominal, log10, read-out: logIC50 (log10 IC50;nom) MTS (converted)): 13.5 µM
- IC50 ([2]; ZF4, 48 h exposure, nominal, read-out: IC50;nom MTS): 13.6 µM
- difference in toxicity (EC50;nom) between 48 hpf and 144 hpf (zebrafish embryos [3]; 48 hpf time point less sensitive than 144 hpf): marginally more toxic
- log EC50;nom (mFET) (zebrafish embryos [3]; 48 hpf, nominal, log10, listed as Ive): -5.766 M
- EC50 (zebrafish embryos [3]; Danio rerio, 48 hpf, nominal, log10, read-out: log EC50;nom (mFET) (converted)): 1.7 µM
- EC50 (zebrafish embryos [3]; Danio rerio, 48 hpf, nominal, read-out: EC50;nom (embryo)): 1.5 µg/mL
- EC50 (zebrafish embryos [3]; Danio rerio, read-out: EC50 48hpf): 1.71 µM
- EC50 (zebrafish embryos [3]; Danio rerio, read-out: EC50;nom (mFET)): 1.71 µM
- EC50 (zebrafish embryos [3]; zebrafish, in vivo, listed as Ive, read-out: EC50;nom (mFET)): 1.71 µM
- IC50 ([4]; NR-abs - ZFL, log10 of IC50, read-out: LogIC50 (converted)): 2.55 µM
- IC50 ([4]; NR-abs - ZFL, read-out: IC50): 2.55 µM
- IC50 ([4]; ZFL, 48 h exposure, nominal, log10, read-out: logIC50 (log10 IC50;nom) NRa (converted)): 2.57 µM
- IC50 ([4]; ZFL, 48 h exposure, nominal, read-out: IC50;nom NRa): 2.55 µM
- IC50 ([5]; ATP - ZF4, log10 of IC50, read-out: LogIC50 (converted)): 15.4 µM
- IC50 ([5]; ATP - ZF4, read-out: IC50): 15.4 µM
- IC50 ([5]; ZF4, 48 h exposure, nominal, log10, read-out: logIC50 (log10 IC50;nom) ATP (converted)): 15.5 µM
- IC50 ([5]; ZF4, 48 h exposure, nominal, read-out: IC50;nom ATP): 15.4 µM
- Physiological charge [6]: 0
- Water Solubility [6]: insoluble
- logKow [6]: 5.83
- pKa (Strongest Acidic) [6]: 12.47
- pKa (Strongest Basic) [6]: -3.4
- IC50 ([7]; NR-abs - ZF4, log10 of IC50, read-out: LogIC50 (converted)): 15.4 µM
- IC50 ([7]; NR-abs - ZF4, read-out: IC50): 15.4 µM
- IC50 ([7]; ZF4, 48 h exposure, nominal, log10, read-out: logIC50 (log10 IC50;nom) NRa (converted)): 15.5 µM
- IC50 ([7]; ZF4, 48 h exposure, nominal, read-out: IC50;nom NRa): 15.4 µM
- IC50 ([8]; BCA - ZFL, log10 of IC50, read-out: LogIC50 (converted)): 7.08 µM
- IC50 ([8]; BCA - ZFL, read-out: IC50): 7.08 µM
- IC50 ([8]; ZFL, 48 h exposure, nominal, log10, read-out: logIC50 (log10 IC50;nom) BCA (converted)): 7.08 µM
- IC50 ([8]; ZFL, 48 h exposure, nominal, read-out: IC50;nom BCA): 7.08 µM
- IC50 ([9]; BCA - ZF4, log10 of IC50, read-out: LogIC50 (converted)): 16.2 µM
- IC50 ([9]; BCA - ZF4, read-out: IC50): 16.2 µM
- IC50 ([9]; ZF4, 48 h exposure, nominal, log10, read-out: logIC50 (log10 IC50;nom) BCA (converted)): 16.2 µM
- IC50 ([9]; ZF4, 48 h exposure, nominal, read-out: IC50;nom BCA): 16.2 µM
- IC50 ([10]; NR-fluo - ZF4, log10 of IC50, read-out: LogIC50 (converted)): 18.1 µM
- IC50 ([10]; NR-fluo - ZF4, read-out: IC50): 18.1 µM
- IC50 ([10]; ZF4, 48 h exposure, nominal, log10, read-out: logIC50 (log10 IC50;nom) NRf (converted)): 18.2 µM
- IC50 ([10]; ZF4, 48 h exposure, nominal, read-out: IC50;nom NRf): 18.1 µM
- EC50 (zebrafish embryos [11]; 144 hpf, converted, listed as Ive): 0.503 µM
- logEC50 144 hpf (zebrafish embryos [11]; log10): -6.299 M
- IC50 ([12]; ATP - ZFL, log10 of IC50, read-out: LogIC50 (converted)): 2.61 µM
- IC50 ([12]; ATP - ZFL, read-out: IC50): 2.61 µM
- IC50 ([12]; ZFL, 48 h exposure, nominal, log10, read-out: logIC50 (log10 IC50;nom) ATP (converted)): 2.63 µM
- IC50 ([12]; ZFL, 48 h exposure, nominal, read-out: IC50;nom ATP): 2.61 µM
- IC50 ([13]; NR-fluo - ZFL, log10 of IC50, read-out: LogIC50 (converted)): 3.34 µM
- IC50 ([13]; NR-fluo - ZFL, read-out: IC50): 3.34 µM
- IC50 ([13]; ZFL, 48 h exposure, nominal, log10, read-out: logIC50 (log10 IC50;nom) NRf (converted)): 3.31 µM
- IC50 ([13]; ZFL, 48 h exposure, nominal, read-out: IC50;nom NRf): 3.34 µM
- IC50 ([14]; CFDA - ZFL, log10 of IC50, read-out: LogIC50 (converted)): 14.1 µM
- IC50 ([14]; CFDA - ZFL, read-out: IC50): 14.1 µM
- IC50 ([14]; ZFL, 48 h exposure, nominal, log10, read-out: logIC50 (log10 IC50;nom) CFDA (converted)): 14.1 µM
- IC50 ([14]; ZFL, 48 h exposure, nominal, read-out: IC50;nom CFDA): 14.1 µM
- IC50 (ZF4 and ZFL cell lines; Danio rerio, read-out: Mean log IC50nom, mean of all cytotoxicity endpoints (without LDH) in ZF4 and ZFL, 48 h, log10 (converted)): 9.12 µM
- Mean log IC50nom (ZF4 and ZFL cell lines; mean of all cytotoxicity endpoints (without LDH) in ZF4 and ZFL, log10, listed as Ive): -5.042 M
- IC50 ([15]; AB - ZFL, log10 of IC50, read-out: LogIC50 (converted)): 6.58 µM
- IC50 ([15]; AB - ZFL, read-out: IC50): 6.58 µM
- IC50 ([15]; ZFL, 48 h exposure, nominal, log10, read-out: logIC50 (log10 IC50;nom) AB (converted)): 6.61 µM
- IC50 ([15]; ZFL, 48 h exposure, nominal, read-out: IC50;nom AB): 6.58 µM
- IC50 ([16]; CFDA - ZF4, log10 of IC50, read-out: LogIC50 (converted)): 18.2 µM
- IC50 ([16]; CFDA - ZF4, read-out: IC50): 18.2 µM
- IC50 ([16]; ZF4, 48 h exposure, nominal, log10, read-out: logIC50 (log10 IC50;nom) CFDA (converted)): 18.2 µM
- IC50 ([16]; ZF4, 48 h exposure, nominal, read-out: IC50;nom CFDA): 18.2 µM
- IC50 ([17]; MTS - ZFL, log10 of IC50, read-out: LogIC50 (converted)): 10.2 µM
- IC50 ([17]; MTS - ZFL, read-out: IC50): 10.2 µM
- IC50 ([17]; ZFL, 48 h exposure, nominal, log10, read-out: logIC50 (log10 IC50;nom) MTS (converted)): 10.2 µM
- IC50 ([17]; ZFL, 48 h exposure, nominal, read-out: IC50;nom MTS): 10.2 µM
